One series deals with HeLa cells. As to the kind of experiment: Mammalian cell viability assay. The following applies: for cell death in microphotographs: 72 h. The format is cell-based, Human. How it is done: Human cervical carcinoma-derived HeLa cells were maintained in routine culture with weekly splitting. […] All reagents were purchased from Life Technologies. Twenty-four hours before drug treatment, cells were trypsinized, resuspended in medium and counted on a Z2 Beckman Coulter counter (Beckman Coulter) in order to obtain a confluent 12-wells plate. […] Cell viability data were derived from two independent experiments and were normalized to NT sample at 24 h. NT samples were subjected only to DMSO solvent. Microphotographs were obtained through an inverted microscope (Nikon) equipped with phase contrast and dark field illumination.

The next series has as its system C. elegans. The series can be described thus: Survival of uninfected C. elegans treated with the compounds. The following applies: no infection.
Series [1] deals with Burkholderia mallei AHL-synthase. The following applies: cited from earlier work.

`O=C1CNC(=O)C(c2cc(OCc3ccccc3)ccc2OCc2ccccc2)N1` (stereo not shown) [6a]: the “significant effects (p < 0.05) on cell growth” value in the series on HeLa cells (HeLa, 10, 25, 50 and 100 μM, 24 h and 48 h) is “observed only after 48 h treatment at a concentration of 100 μM”. In addition, the “cell death in microphotographs” value in the series with HeLa cells (HeLa) is “did not induce cell death”. For the same molecule, the C. elegans survival in the series on C. elegans (1 μM, 24 h) worked out at 98 ± 6%; in the series with C. elegans (1 μM, 48 h), 91 ± 12%; with C. elegans (5 μM, 24 h) it was 99 ± 2%; in the series with C. elegans (5 μM, 48 h) it was 98 ± 4%; with C. elegans (10 μM, 24 h), 91 ± 8%; in the series with C. elegans (10 μM, 48 h) it was 86 ± 10%. Moreover, the C. elegans survival is on record as 91 ± 4% with C. elegans (25 μM, 24 h) and 91 ± 6% in the series on C. elegans (25 μM, 48 h).

Take `O=C1C=CC(=O)C(C2NC(=O)C(Cc3ccccc3)NC2=O)=C1` (stereo not shown) [8b]: the cell viability reduction entry in the series on HeLa cells (HeLa, 50 μM, 48 h) is “approximately 50%”. In the series on HeLa cells (HeLa, 100 μM, 24 h), the “reduction in cell viability” value was about 20%. Besides, the “cell death in microphotographs” value in the series on HeLa cells (HeLa, 50 and 100 μM) is on record as “confirmed cell death”. For the same molecule, the C. elegans survival in the series with C. elegans (1 μM, 24 h) came to 98 ± 5%; in the series on C. elegans (1 μM, 48 h) it was 97 ± 6%; in the series with C. elegans (5 μM, 24 h) it was 97 ± 7%; with C. elegans (5 μM, 48 h) it was 95 ± 7%; in the series on C. elegans (10 μM, 24 h) it was 99 ± 2%; with C. elegans (10 μM, 48 h), 95 ± 10%. The C. elegans survival came out at 98 ± 5% with C. elegans (25 μM, 24 h) and 96 ± 5% with C. elegans (25 μM, 48 h).

With `CN1CCN(C(c2ccccn2)c2c(-c3ccccc3)n(O)c3ccccc23)CC1` (stereo not shown) [compound 1 from Christensen et al., reference compound], in series [1], the “activity against AHL-synthase” value is given as “very active”.
